Experimental data from article PMC3844542 (Anesthesia and analgesia, 2013).

How the values were obtained:
[1] = target: leukocyte function–associated antigen-1 (LFA-1) (Homo sapiens, UniProt P20701); test: ELISA-type ICAM-1–LFA-1 binding assay with purified LFA-1; assay type: biochemical
[2] = target: T1, LFA-1 αL I domain (wild-type, low-affinity conformer) (Homo sapiens, UniProt P20701); test: 1-aminoanthracene fluorescence displacement assay; assay type: binding
T1 sequence (P20701 153-332): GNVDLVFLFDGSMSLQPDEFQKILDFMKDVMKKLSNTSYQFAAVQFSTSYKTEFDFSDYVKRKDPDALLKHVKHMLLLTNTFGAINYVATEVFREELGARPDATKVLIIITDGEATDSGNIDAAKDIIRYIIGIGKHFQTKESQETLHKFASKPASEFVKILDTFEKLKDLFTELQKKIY

leukocyte function–associated antigen-1 (LFA-1), sequence (P20701 26-1090 limits assumed): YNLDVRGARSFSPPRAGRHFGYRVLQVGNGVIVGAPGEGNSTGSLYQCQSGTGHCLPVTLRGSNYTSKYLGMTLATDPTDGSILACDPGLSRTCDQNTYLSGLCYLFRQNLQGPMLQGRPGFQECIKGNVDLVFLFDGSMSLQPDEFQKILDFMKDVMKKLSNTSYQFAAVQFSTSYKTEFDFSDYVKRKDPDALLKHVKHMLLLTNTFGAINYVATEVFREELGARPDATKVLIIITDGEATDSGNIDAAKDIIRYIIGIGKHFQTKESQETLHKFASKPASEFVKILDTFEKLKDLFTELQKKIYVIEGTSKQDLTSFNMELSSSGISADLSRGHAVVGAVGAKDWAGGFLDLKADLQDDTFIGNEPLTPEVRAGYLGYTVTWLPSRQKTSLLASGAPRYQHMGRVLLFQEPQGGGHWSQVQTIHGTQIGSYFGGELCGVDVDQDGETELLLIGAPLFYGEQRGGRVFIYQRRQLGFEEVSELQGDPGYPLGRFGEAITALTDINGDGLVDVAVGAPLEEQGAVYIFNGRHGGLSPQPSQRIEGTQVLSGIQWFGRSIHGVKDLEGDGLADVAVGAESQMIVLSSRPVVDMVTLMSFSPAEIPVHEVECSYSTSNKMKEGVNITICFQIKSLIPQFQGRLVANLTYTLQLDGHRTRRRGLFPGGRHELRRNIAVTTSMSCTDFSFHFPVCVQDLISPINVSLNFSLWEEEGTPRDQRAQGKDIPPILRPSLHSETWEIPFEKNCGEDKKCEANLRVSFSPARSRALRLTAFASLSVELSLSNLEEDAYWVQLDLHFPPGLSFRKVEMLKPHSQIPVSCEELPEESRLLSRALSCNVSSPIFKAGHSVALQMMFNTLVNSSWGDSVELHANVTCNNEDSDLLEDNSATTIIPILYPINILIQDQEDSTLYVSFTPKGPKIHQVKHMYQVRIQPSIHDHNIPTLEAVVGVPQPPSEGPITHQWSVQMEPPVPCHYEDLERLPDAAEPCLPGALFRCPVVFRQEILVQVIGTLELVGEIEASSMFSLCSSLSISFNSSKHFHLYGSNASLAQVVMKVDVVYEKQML
leukocyte function–associated antigen-1 (LFA-1), sequence (P05107 23-769 partner): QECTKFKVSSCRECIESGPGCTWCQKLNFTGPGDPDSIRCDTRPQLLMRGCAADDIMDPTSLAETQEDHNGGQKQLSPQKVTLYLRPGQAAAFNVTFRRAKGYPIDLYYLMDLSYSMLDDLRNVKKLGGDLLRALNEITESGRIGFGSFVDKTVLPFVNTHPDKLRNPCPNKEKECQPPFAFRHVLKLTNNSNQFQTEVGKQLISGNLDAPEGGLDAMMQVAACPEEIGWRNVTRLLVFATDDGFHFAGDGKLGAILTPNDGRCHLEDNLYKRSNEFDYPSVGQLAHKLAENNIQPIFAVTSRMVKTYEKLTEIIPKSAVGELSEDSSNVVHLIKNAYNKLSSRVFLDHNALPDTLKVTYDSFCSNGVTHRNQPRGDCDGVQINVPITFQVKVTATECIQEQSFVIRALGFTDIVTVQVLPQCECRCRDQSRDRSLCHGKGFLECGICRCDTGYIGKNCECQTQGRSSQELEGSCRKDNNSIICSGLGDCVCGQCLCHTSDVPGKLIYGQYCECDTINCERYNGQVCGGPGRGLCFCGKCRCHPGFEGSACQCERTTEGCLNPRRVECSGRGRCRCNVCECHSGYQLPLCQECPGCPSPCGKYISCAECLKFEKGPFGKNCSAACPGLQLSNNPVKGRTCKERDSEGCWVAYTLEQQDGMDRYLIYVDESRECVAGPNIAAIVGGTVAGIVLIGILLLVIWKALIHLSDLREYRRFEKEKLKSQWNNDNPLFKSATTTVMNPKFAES

SMILES	ELISA-type ICAM-1-LFA-1 binding assay with purified LFA-1 [1]	IC50 [2] [µM]
CC(C)(C)c1cccc(C(C)(C)C)c1O [DTBP, 2,6-di-tert-butylphenol]	Both propofol and DTBP inhibited ICAM-1–LFA-1 binding.	–
CC(C)c1cccc(C(C)C)c1O [propofol]	–	90.3
